Laboratory results taken from patent publication US20060142247A1, “Tricyclic heterocycles” (priority 2004, published 2006).

Biological target: T1, Aurora A (Homo sapiens, UniProt O14965)
T1 construct: C-terminally Histidine4 (His4)-tagged Aurora A full-length protein; His4 (C)
T1 sequence (O14965 1-403): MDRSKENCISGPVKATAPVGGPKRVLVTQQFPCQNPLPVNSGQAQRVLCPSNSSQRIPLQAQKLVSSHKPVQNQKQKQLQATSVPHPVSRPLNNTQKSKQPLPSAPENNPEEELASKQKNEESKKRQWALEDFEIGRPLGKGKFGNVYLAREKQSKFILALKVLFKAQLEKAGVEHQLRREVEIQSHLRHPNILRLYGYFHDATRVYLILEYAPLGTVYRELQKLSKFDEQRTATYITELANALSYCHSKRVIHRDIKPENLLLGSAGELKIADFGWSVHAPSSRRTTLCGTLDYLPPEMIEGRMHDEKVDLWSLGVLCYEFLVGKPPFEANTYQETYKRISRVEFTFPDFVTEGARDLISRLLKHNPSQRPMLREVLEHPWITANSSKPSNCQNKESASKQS
Assay: IC50 determination for inhibitors of Aurora A (96 MTP-ELISA)
Type: biochemical
Conditions: His4-tagged full-length Aurora A 250 ng/ml, PKB-GSK2 200 nM, ATP 4 μM, 90 min room temperature, read-out: IC50 Aurora A kinase inhibition
Procedure: Aurora A is a serine threonine kinase involved in spindle assembly and chromosome segregation. The assay is a typically ELISA-type assay where biotinylated substrate (PKB-GSK2) is phosphorylated. Phosphorylation is detected by peroxidase (POD) labelled polyclonal antibody (PAK<M-Ig>S-IgG-POD) and phosphopeptide monoclonal antibody (Mab) (MAK<P-GSK>M-27E5-IgG). The assay is validated for IC50-determination.
Assay plates: 96-well polystyrene plates, streptavidin-coated,
Samples: 10 mM in dimethylsulfoxide (DMSO)
Aurora A-His-4: C-terminally Histidine4 (His4)-tagged Aurora A full-length protein, stock solution 0.7 mg/ml, final conc.: 250 ng/ml
PKB-GSK2: biotinylated peptide derived from human GSK3-alpha sequence (Biotin-SGRARTSSFAEPGG-CONH2), stock solution 600 μM, final conc.: 200 nM
PAK<M-Ig>S-IgG-POD: Anti-mouse IgG, horse radish peroxidase(HRP)-linked Antibody, diluted in 3% BSA/PBS-T (1:10000), (Cell Signaling, Cat. No.: 7076)
MAK<P-GSK>M-27E5-IgG: Phospho-GSK-3-alpha (Ser 21) (27E5) Monoclonal Antibody, stock solution 1.85 mg/ml, diluted in 3% BSA/PBS-T (1:6000), final conc.: 0.31 μg/ml, (Cell Signaling, Cat. No.: 9337B)
ATP: Adenosine-5′-triphosphate 1 mM, diluted in kinase buffer, (Roche Diagnostics GmbH, Cat. No.: 127531-001,), final conc.: 4 μM
TRIS: 2-Amino-2-hydroxymethyl-1,3-propoanediol (“tris-(hydroxymethyl)-aminomethane”) (MERCK, Cat. No.: 108382.2500)
BSA: Bovine Serum Albumin Fraction V, fatty acid free (Roche Diagnostics GmbH, Cat. No. 9100221)
EDTA Titriplex III (di-Sodium-EDTA di-Hydrate), 120 mM, (MERCK, Cat. No.: 1.08418.1000)
ABTS buffer: ABTS (2,2′-azino-bis(3-ethylbenzthiazoline-6-sulfonic acid)) 16.7 mg/ml (Roche Diagnostics GmbH, Cat. No.: 1204530) • ABTS tablets: dissolve one ABTS tablet in 50 ml of working solution (ABTS buffer) (Roche Diagnostics GmbH, Cat. No.: 1112422 ) • Tween 20: Polysorbat 20 (Roche Diagnostics GmbH, Cat. No.: 10006394-001) • DTT: 1,4-Dithiothreitol (Roche Diagnostics GmbH, Cat. No.: 197777) • MgCl2×6H2O MERCK, Cat. No.: 105833.1000 • Kinase buffer: 50 mM TRIS, 10 mM MgCl2, 1 mM DTT, 0.1% Tween 20, pH 7.8 PBS-T (=Wash buffer) (PBS-T)10 g/l PBS(Phosphate buffered saline) with 0.033% Tween 20 • 3% BSA/PBS-T: 3% BSA dissolved in PBS-T Method
This assay is performed in 96-well format for IC50 determination with 5 samples (each with 8 concentrations by twofold testing), 100 μl incubation volume and the following plate layout:
S samples, with ATP, 1% DMSO, final conc.: a=100 μM, b=20 μM, c=4 μM, d=0.8 μM, e=0.16 μM, f=0.032 μM, g=0.0064 μM, h=0.00128 μM Step/Action • (1) Sample preparation: add 24 μl per well samples (descending sequence) diluted in kinase buffer to assay plate (final conc. for DMSO 1%). • 2. Add directly 16 μl Aurora-A-his-4 diluted in kinase buffer to assay plate. • 3. Add directly 40 μl per well PKB-GSK2/ATP mixture to assay plate, (final conc.: Aurora A=250 ng/ml, GSK2=200 nM, ATP=4 μM). Negative control: without ATP. • 4. Incubate assay plate for exactly 90 min at room temperature. • 5. Stop reaction by adding 20 μl EDTA in all wells. • 6. Wash assay plate 3× with 200 μl washing buffer per well. • 7. Add 100 μl MAK<P-GSK>M27E5-IgG (1:10000) and PAK<M-Ig>S-IgG-POD (1:6000) dissolved in 3% BSA/PBS-T to assay plate per well. • 8. Incubate assay plate for 60 min at room temperature. • 9. Wash assay plate 3× with 200 μl washing buffer per well • 10. Add 100 μl ABTS solution to assay plate per well, incubate for approx. 4 min at RT on MTP shaker. • 11. Measure absorption at 405/492 nm. • 12. Calculate % inhibition as: (1−(Esample−ENC)/(EPC−ENC))×100 1)
13. Calculate IC50 using a non-linear curve fit (XLfit software (ID Business Solution Ltd., Guilford, Surrey, UK))

| Compound | IC50 |
| --- | --- |
| O=C1Nc2cc3nc(-c4n[nH]c5ccccc45)[nH]c3cc2C12CCCC2 [Example 9, 2-(1H-indazol-3-yl)-spiro[7,7-cyclopentan-5,7-dihydro-3H-imidazo[4,5-f]indol]-6-one] | 100 to 250 nM |
| CC1(C)C(=O)N(Cc2ccc(S(C)(=O)=O)cc2)c2cc3[nH]c(-c4n[nH]c5ccccc45)nc3cc21 [Example 27, 2-(1H-Indazol-3-yl)-5-(4-methanesulfonyl-benzyl)-7,7-dimethyl-5,7-dihydro-3H-imidazol[4,5-f]indol-6-one] | 1 to 100 nM |
| CC1(C)C(=O)N(CCCN2CCOCC2)c2cc3[nH]c(-c4n[nH]c5ccccc45)nc3cc21 [Example 7, 2-(1H-indazol-3-yl)-7,7-dimethyl-5-(3-morpholin-4-yl-propyl)-5,7-dihydro-3H-imidazo[4,5-f]indol-6-one] | 14 nM |
| CC1(C)C(=O)Nc2cc3[nH]c(-c4n[nH]c5ccccc45)nc3cc21 [Example 8, 2-(1H-indazol-3-yl)-7,7-dimethyl-5,7-dihydro-3H-imidazo[4,5-f]indol-6-one] | 1 to 100 nM |
| COCCOCCN1C(=O)C(C)(C)c2cc3nc(-c4n[nH]c5ccccc45)[nH]c3cc21 [Example 17, 2-(1H-Indazol-3-yl)-5-[2-(2-methoxy-ethoxy)-ethyl]-7,7-dimethyl-5,7-dihydro-3H-imidazo[4,5-f]indol-6-one] | 1 to 100 nM |
| C=CCN1C(=O)C(C)(C)c2cc3nc(-c4n[nH]c5ccccc45)[nH]c3cc21 [Example 2, 5-Allyl-2-(1H-indazol-3-yl)-7,7-dimethyl-5,7-dihydro-3H-imidazo[4,5-f]indol-6-one] | 1 to 100 nM |
| CC1(C)C(=O)N(CC#N)c2cc3[nH]c(-c4n[nH]c5ccccc45)nc3cc21 [Example 24, [2-(1H-Indazol-3-yl)-7,7-dimethyl-6-oxo-6,7-dihydro-3H-imidazo[4,5-f]indol-5-yl]-acetonitrile] | 1 to 100 nM |
| CCC1C(=O)Nc2cc3nc(-c4[nH]nc5ccccc45)[nH]c3cc21 (centres unmarked) [Example 13, 7-Ethyl-2-(1H-indazol-3-yl)-5,7-dihydro-3H-imidazo[4,5-f]indol-6-one] | 100 to 250 nM |
| CC1(C)C(=O)N(CCCN2CCCCC2)c2cc3[nH]c(-c4n[nH]c5ccccc45)nc3cc21 [Example 19, 2-(1H-Indazol-3-yl)-7,7-dimethyl-5-(3-piperidin-1-yl-propyl)-5,7-dihydro-3H-imidazo[4,5-f]indol-6-one] | 1 to 100 nM |
| CC1(C)C(=O)N(CCO[Si](C)(C)C(C)(C)C)c2cc3[nH]c(-c4n[nH]c5ccccc45)nc3cc21 [Example 28, 5-[2-(tert-Butyl-dimethyl-silanyloxy)-ethyl]-2-(1H-indazol-3-yl)-7,7-dimethyl-5,7-dihydro-3H-imidazo[4,5-f]indol-6-one] | 1 to 100 nM |
| CC1C(=O)Nc2cc3[nH]c(-c4n[nH]c5ccccc45)nc3cc21 (centres unmarked) [Example 11, 2-(1H-Indazol-3-yl)-7-methyl-5,7-dihydro-3H-imidazo[4,5-f]indol-6-one] | 100 to 250 nM |
| CC(C)N1C(=O)C(C)(C)c2cc3nc(-c4n[nH]c5ccccc45)[nH]c3cc21 [Example 6, 2-(1H-indazol-3-yl)-5-isopropyl-7,7-dimethyl-5,7-dihydro-3H-imidazo[4,5-f]indol-6-one] | 28 nM |
| CC1(C)C(=O)N(CC(=O)N2CCOCC2)c2cc3[nH]c(-c4n[nH]c5ccccc45)nc3cc21 [Example 40, 2-(1H-Indazol-3-yl)-7,7-dimethyl-5-(2-morpholin-4-yl-2-oxo-ethyl)-5,7-dihydro-3H-imidazo[4,5-f]indol-6-one] | 1 to 100 nM |

More lines, now with the values ahead:

| IC50 | Compound |
| --- | --- |
| 1 to 100 nM | CC1(C)C(=O)N(CCN)c2cc3[nH]c(-c4n[nH]c5ccccc45)nc3cc21 [Example 52, 5-(2-Amino-ethyl)-2-(1H-indazol-3-yl)-7,7-dimethyl-5,7-dihydro-3H-imidazo[4,5-f]indol-6-one] |
| 1 to 100 nM | CC1(C)C(=O)N(CC(N)=O)c2cc3[nH]c(-c4n[nH]c5ccccc45)nc3cc21 [Example 37, 2-[2-(1H-Indazol-3-yl)-7,7-dimethyl-6-oxo-6,7-dihydro-3H-imidazo[4,5-f]indol-5-yl]-acetamide] |
| 1 to 100 nM | CC1(C)C(=O)N(CCO)c2cc3[nH]c(-c4n[nH]c5ccccc45)nc3cc21 [Example 34, 5-(2-Hydroxy-ethyl)-2-(1H-indazol-3-yl)-7,7-dimethyl-5,7-dihydro-3H-imidazo[4,5-f]indol-6-one] |
| 1 to 100 nM | CC1(C)C(=O)N(CC(=O)O)c2cc3[nH]c(-c4n[nH]c5ccccc45)nc3cc21 [Example 36, [2-(1H-Indazol-3-yl)-7,7-dimethyl-6-oxo-6,7-dihydro-3H-imidazo[4,5-f]indol-5-yl]-acetic acid] |
| 1 to 100 nM | CCCN1C(=O)C(C)(C)c2cc3nc(-c4n[nH]c5ccccc45)[nH]c3cc21 [Example 5, 2-(1H-indazol-3-yl)-7,7-dimethyl-5-propyl-5,7-dihydro-3H-imidazo[4,5-f]indol-6-one] |
| 1 to 100 nM | CC1(C)C(=O)N(CC(=O)Nc2ccccc2)c2cc3[nH]c(-c4n[nH]c5ccccc45)nc3cc21 [Example 43, 2-[2-(1H-Indazol-3-yl)-7,7-dimethyl-6-oxo-6,7-dihydro-3H-imidazo[4,5-f]indol-5-yl]-N-phenyl-acetamide] |
| 100 to 250 nM | CC1(C)C(=O)N(Cc2ccccc2)c2cc3[nH]c(-c4n[nH]c5ccccc45)nc3cc21 [Example 26, 5-Benzyl-2-(1H-indazol-3-yl)-7,7-dimethyl-5,7-dihydro-3H-imidazo[4,5-f]indol-6-one] |
| 1 to 100 nM | CC1(C)C(=O)N(CC(=O)NCc2ccccc2)c2cc3[nH]c(-c4n[nH]c5ccccc45)nc3cc21 [Example 39, N-Benzyl-2-[2-(1H-indazol-3-yl)-7,7-dimethyl-6-oxo-6,7-dihydro-3H-imidazo[4,5-f]indol-5-yl]-acetamide] |
| 1 to 100 nM | CCN1C(=O)C(C)(C)c2cc3nc(-c4n[nH]c5ccccc45)[nH]c3cc21 [Example 3, 5-Ethyl-2-(1H-indazol-3-yl)-7,7-dimethyl-5,7-dihydro-3H-imidazo[4,5-f]indol-6-one] |
| 1 to 100 nM | CC1(C)C(=O)N(CC(=O)NO)c2cc3[nH]c(-c4n[nH]c5ccccc45)nc3cc21 [Example 49, N-Hydroxy-2-[2-(1H-indazol-3-yl)-7,7-dimethyl-6-oxo-6,7-dihydro-3H-imidazo[4,5-f]indol-5-yl]-acetamide] |
